# According to patent publication US11497212B2, “Substituted thiophenyl uracils, salts thereof and the use thereof as herbicidal agents” (Syngenta Crop Protection AG, priority 2017, dated 2022):
# Assays:
# Assay type in all cases: in vivo
# Zea mays [1] = assay: Crop compatibility pre-emergence (greenhouse pot trial); conditions: application rate 80 g/ha, effect vs untreated controls
# Outline: (§1)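 Pre-emergence: seeds sown in pots, covered with soil, then WP or EC formulations sprayed on soil surface as aqueous suspension/emulsion with 0.5% additive at 600 L/ha water. Greenhouse; crop damage scored visually as % versus untreated controls after about 3 weeks (100% = dead).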
# Glycine max [2] = assay: as above; conditions: effect vs untreated controls
# Outline: as §1
# Setaria viridis [3] = assay: Herbicidal action pre-emergence (greenhouse pot trial); conditions: application rate 320 g/ha, scored after about 3 weeks
# Outline: (§2)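 Pre-emergence: WP or EC formulations sprayed onto covering soil over sown seeds as aqueous suspension/emulsion with 0.5% additive, 600 L/ha water, at 320 g/ha or lower. Visual percent efficacy versus untreated controls after about 3 weeks in greenhouse (100% = plants dead).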
# Pharbitis purpurea [4] = assay: as above; conditions: application rate 320 g/ha
# Outline: as §2
# Veronica persica [5] = assay: as above; conditions: application rate 320 g/ha
# Outline: as §2
# Digitaria sanguinalis [6] = assay: as above; conditions: application rate 80 g/ha
# Outline: as §2
# Lolium rigidum [7] = assay: as above; conditions: application rate 320 g/ha
# Outline: as §2
# Amaranthus retroflexus [8] = assay: as above; conditions: scored after about 3 weeks
# Outline: as §2
# Abutilon theophrasti [9] = assay: as above; conditions: scored after about 3 weeks
# Outline: as §2
# Matricaria inodora [10] = assay: as above; conditions: scored after about 3 weeks
# Outline: as §2
# Alopecurus myosuroides [11] = assay: as above; conditions: application rate 320 g/ha, scored after about 3 weeks
# Outline: as §2
# Stellaria media [12] = assay: as above; conditions: application rate 320 g/ha, scored after about 3 weeks
# Outline: as §2
# Echinochloa crus-galli [13] = assay: as above; conditions: application rate 320 g/ha, scored after about 3 weeks
# Outline: as §2
# Avena fatua [14] = assay: as above; conditions: application rate 320 g/ha
# Outline: as §2
# Hordeum murinum [15] = assay: as above; conditions: application rate 320 g/ha
# Outline: as §2
# Viola tricolor [16] = assay: as above; conditions: application rate 320 g/ha, scored after about 3 weeks
# Outline: as §2
# Setaria viridis [17] = assay: Herbicidal action post-emergence (greenhouse pot trial); conditions: scored visually after about 3 weeks vs untreated controls
# Outline: (§3)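 Weed seeds sown in sandy loam were grown in a greenhouse for 2–3 weeks and treated at the one-leaf stage. WP or EC formulations, with 0.5% additive, were sprayed on green parts at a water rate of 600 L/ha and at 80 g/ha or lower. Efficacy was scored visually about 3 weeks later against untreated controls.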
# Pharbitis purpurea [18] = assay: as above
# Outline: as §3
# Veronica persica [19] = assay: as above
# Outline: as §3
# Digitaria sanguinalis [20] = assay: as above
# Outline: as §3
# Lolium rigidum [21] = assay: as above; conditions: application rate 80 g/ha, scored visually after about 3 weeks vs untreated controls
# Outline: as §3
# Amaranthus retroflexus [22] = assay: as above; conditions: scored visually after about 3 weeks vs untreated controls
# Outline: as §3
# Abutilon theophrasti [23] = assay: as above; conditions: scored visually after about 3 weeks vs untreated controls
# Outline: as §3
# Matricaria inodora [24] = assay: as above; conditions: scored visually after about 3 weeks vs untreated controls
# Outline: as §3
# Alopecurus myosuroides [25] = assay: as above; conditions: application rate 80 g/ha, scored visually after about 3 weeks vs untreated controls
# Outline: as §3
# Stellaria media [26] = assay: as above; conditions: scored visually after about 3 weeks vs untreated controls
# Outline: as §3
# Polygonum convolvulus = assay: as above; conditions: application rate 80 g/ha, scored visually after about 3 weeks vs untreated controls
# Outline: as §3
# Echinochloa crus-galli [27] = assay: as above; conditions: application rate 80 g/ha, scored visually after about 3 weeks vs untreated controls
# Outline: as §3
# Avena fatua [28] = assay: as above; conditions: application rate 80 g/ha, scored visually after about 3 weeks vs untreated controls
# Outline: as §3
# Hordeum murinum [29] = assay: as above; conditions: application rate 80 g/ha, scored visually after about 3 weeks vs untreated controls
# Outline: as §3
# Viola tricolor [30] = assay: as above
# Outline: as §3
# Triticum aestivum = assay: Crop compatibility post-emergence (greenhouse pot trial)
# Outline: (§4)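 Greenhouse pot trial: sandy loam, sown seeds, treatment at one-leaf stage 2–3 wk after sowing. Spray: aqueous WP/EC preparation, 0.5% additive, 600 L/ha. Readout: visual % effect after ~3 wk relative to untreated plants.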
# Oryza sativa [31] = assay: as above
# Outline: as §4
# Oryza sativa [32] = assay: Crop compatibility pre-emergence (greenhouse pot trial); conditions: application rate 80 g/ha, effect vs untreated controls
# Outline: as §1
# Zea mays [33] = assay: Crop compatibility post-emergence (greenhouse pot trial); conditions: application rate 20 g/ha
# Outline: as §4
# Cyperus esculentus = assay: Herbicidal action pre-emergence (greenhouse pot trial); conditions: application rate 320 g/ha
# Outline: as §2
# Glycine max [34] = assay: Crop compatibility post-emergence (greenhouse pot trial); conditions: application rate 20 g/ha
# Outline: as §4
structure (smiles),measurement,setting,value
"CCC(Sc1cc(-n2c(=O)cc(C(F)(F)F)n(C)c2=O)c(F)cc1Cl)C(=O)OCC1CCOC1 (centres unmarked) [I.2-72, Tetrahydrofuran-3-ylmethyl 2-({2-chloro-4-fluoro-5-[3-methyl-2,6-dioxo-4-(trifluoromethyl)-3,6-dihydropyrimidin-1(2H)-yl]phenyl}sulfanyl)butanoate]",Zea mays (Efficacy in %),Zea mays [1],10%
same,Glycine max (Efficacy in %),Glycine max [2]; application rate 20 g/ha,20%
same,Setaria viridis (Efficacy in %),Setaria viridis [3],100%
same,Pharbitis purpurea (Efficacy in %),Pharbitis purpurea [4],100%
same,Veronica persica (Efficacy in %),Veronica persica [5],100%
same,Digitaria sanguinalis (Efficacy in %),Digitaria sanguinalis [6],100%
same,Lolium rigidum (Efficacy in %),Lolium rigidum [7],90%
same,Amaranthus retroflexus (Efficacy in %),Amaranthus retroflexus [8]; application rate 320 g/ha,100%
same,Abutilon theophrasti (Efficacy in %),Abutilon theophrasti [9]; application rate 320 g/ha,100%
same,Matricaria inodora (Efficacy in %),Matricaria inodora [10]; application rate 320 g/ha,100%
same,Alopecurus myosuroides (Efficacy in %),Alopecurus myosuroides [11],100%
same,Stellaria media (Efficacy in %),Stellaria media [12],100%
same,Echinochloa crus-galli (Efficacy in %),Echinochloa crus-galli [13],100%
same,Avena fatua (Efficacy in %),Avena fatua [14],80%
same,Hordeum murinum (Efficacy in %),Hordeum murinum [15],90%
same,Viola tricolor (Efficacy in %),Viola tricolor [16],100%
same,Setaria viridis (Efficacy in %),Setaria viridis [17]; application rate 80 g/ha,100%
same,Pharbitis purpurea (Efficacy in %),Pharbitis purpurea [18]; application rate 80 g/ha,100%
same,Veronica persica (Efficacy in %),Veronica persica [19]; application rate 80 g/ha,100%
same,Digitaria sanguinalis (Efficacy in %),Digitaria sanguinalis [20]; application rate 80 g/ha,100%
same,Lolium rigidum (Efficacy in %),Lolium rigidum [21],80%
same,Amaranthus retroflexus (Efficacy in %),Amaranthus retroflexus [22]; application rate 80 g/ha,100%
same,Abutilon theophrasti (Efficacy in %),Abutilon theophrasti [23]; application rate 80 g/ha,100%
same,Matricaria inodora (Efficacy in %),Matricaria inodora [24]; application rate 80 g/ha,100%
same,Alopecurus myosuroides (Efficacy in %),Alopecurus myosuroides [25],90%
same,Stellaria media (Efficacy in %),Stellaria media [26]; application rate 80 g/ha,100%
same,Polygonum convolvulus (Efficacy in %),Polygonum convolvulus,100%
same,Echinochloa crus-galli (Efficacy in %),Echinochloa crus-galli [27],100%
same,Avena fatua (Efficacy in %),Avena fatua [28],80%
same,Hordeum murinum (Efficacy in %),Hordeum murinum [29],80%
same,Viola tricolor (Efficacy in %),Viola tricolor [30]; application rate 80 g/ha,100%
same,Triticum aestivum (Efficacy in %),Triticum aestivum; application rate 80 g/ha,20%
same,Oryza sativa (Efficacy in %),Oryza sativa [31]; application rate 5 g/ha,20%
CC(Sc1cc(-n2c(=O)cc(C(F)(F)F)n(C)c2=O)c(F)cc1Cl)C(=O)OC1CCCOC1 (centres unmarked) [I.1-126],Zea mays (Efficacy in %),Zea mays [1],0%
same,Oryza sativa (Efficacy in %),Oryza sativa [32],20%
same,Glycine max (Efficacy in %),Glycine max [2]; application rate 80 g/ha,10%
same,Amaranthus retroflexus (Efficacy in %),Amaranthus retroflexus [8]; application rate 80 g/ha,100%
same,Abutilon theophrasti (Efficacy in %),Abutilon theophrasti [9]; application rate 80 g/ha,100%
same,Matricaria inodora (Efficacy in %),Matricaria inodora [10]; application rate 80 g/ha,100%
same,Setaria viridis (Efficacy in %),Setaria viridis [17]; application rate 20 g/ha,100%
same,Pharbitis purpurea (Efficacy in %),Pharbitis purpurea [18]; application rate 20 g/ha,100%
same,Veronica persica (Efficacy in %),Veronica persica [19]; application rate 20 g/ha,100%
same,Digitaria sanguinalis (Efficacy in %),Digitaria sanguinalis [20]; application rate 20 g/ha,80%
same,Amaranthus retroflexus (Efficacy in %),Amaranthus retroflexus [22]; application rate 20 g/ha,100%
same,Abutilon theophrasti (Efficacy in %),Abutilon theophrasti [23]; application rate 20 g/ha,100%
same,Matricaria inodora (Efficacy in %),Matricaria inodora [24]; application rate 20 g/ha,90%
same,Stellaria media (Efficacy in %),Stellaria media [26]; application rate 20 g/ha,100%
same,Viola tricolor (Efficacy in %),Viola tricolor [30]; application rate 20 g/ha,100%
same,Zea mays (Efficacy in %),Zea mays [33],20%
same,Triticum aestivum (Efficacy in %),Triticum aestivum; application rate 20 g/ha,20%
same,Oryza sativa (Efficacy in %),Oryza sativa [31]; application rate 20 g/ha,0%
CC(Sc1cc(-n2c(=O)cc(C(F)(F)F)n(C)c2=O)c(F)cc1Cl)C(=O)OCC1CCOC1 (centres unmarked) [I.1-72],Zea mays (Efficacy in %),Zea mays [1],20%
same,Glycine max (Efficacy in %),Glycine max [2]; application rate 80 g/ha,20%
same,Setaria viridis (Efficacy in %),Setaria viridis [3],100%
same,Pharbitis purpurea (Efficacy in %),Pharbitis purpurea [4],100%
same,Veronica persica (Efficacy in %),Veronica persica [5],100%
same,Lolium rigidum (Efficacy in %),Lolium rigidum [7],100%
same,Amaranthus retroflexus (Efficacy in %),Amaranthus retroflexus [8]; application rate 320 g/ha,100%
same,Abutilon theophrasti (Efficacy in %),Abutilon theophrasti [9]; application rate 320 g/ha,100%
same,Matricaria inodora (Efficacy in %),Matricaria inodora [10]; application rate 320 g/ha,100%
same,Alopecurus myosuroides (Efficacy in %),Alopecurus myosuroides [11],90%
same,Stellaria media (Efficacy in %),Stellaria media [12],100%
same,Cyperus esculentus (Efficacy in %),Cyperus esculentus,80%
same,Echinochloa crus-galli (Efficacy in %),Echinochloa crus-galli [13],100%
same,Avena fatua (Efficacy in %),Avena fatua [14],100%
same,Hordeum murinum (Efficacy in %),Hordeum murinum [15],90%
same,Viola tricolor (Efficacy in %),Viola tricolor [16],100%
same,Setaria viridis (Efficacy in %),Setaria viridis [17]; application rate 80 g/ha,100%
same,Pharbitis purpurea (Efficacy in %),Pharbitis purpurea [18]; application rate 80 g/ha,100%
same,Veronica persica (Efficacy in %),Veronica persica [19]; application rate 80 g/ha,100%
same,Lolium rigidum (Efficacy in %),Lolium rigidum [21],100%
same,Amaranthus retroflexus (Efficacy in %),Amaranthus retroflexus [22]; application rate 80 g/ha,100%
same,Abutilon theophrasti (Efficacy in %),Abutilon theophrasti [23]; application rate 80 g/ha,100%
same,Matricaria inodora (Efficacy in %),Matricaria inodora [24]; application rate 80 g/ha,100%
same,Stellaria media (Efficacy in %),Stellaria media [26]; application rate 80 g/ha,100%
same,Polygonum convolvulus (Efficacy in %),Polygonum convolvulus,100%
same,Echinochloa crus-galli (Efficacy in %),Echinochloa crus-galli [27],100%
same,Avena fatua (Efficacy in %),Avena fatua [28],80%
same,Hordeum murinum (Efficacy in %),Hordeum murinum [29],80%
same,Viola tricolor (Efficacy in %),Viola tricolor [30]; application rate 80 g/ha,100%
same,Zea mays (Efficacy in %),Zea mays [33],20%
same,Triticum aestivum (Efficacy in %),Triticum aestivum; application rate 20 g/ha,0%
same,Glycine max (Efficacy in %),Glycine max [34],10%
